Read-outs that look alike come from different tables or passages of the source.
Target: T1, human HDAC6 (Homo sapiens, UniProt Q9UBN7)
T1 construct: Reaction Biology Corporation
T1 sequence (Q9UBN7 1-1215): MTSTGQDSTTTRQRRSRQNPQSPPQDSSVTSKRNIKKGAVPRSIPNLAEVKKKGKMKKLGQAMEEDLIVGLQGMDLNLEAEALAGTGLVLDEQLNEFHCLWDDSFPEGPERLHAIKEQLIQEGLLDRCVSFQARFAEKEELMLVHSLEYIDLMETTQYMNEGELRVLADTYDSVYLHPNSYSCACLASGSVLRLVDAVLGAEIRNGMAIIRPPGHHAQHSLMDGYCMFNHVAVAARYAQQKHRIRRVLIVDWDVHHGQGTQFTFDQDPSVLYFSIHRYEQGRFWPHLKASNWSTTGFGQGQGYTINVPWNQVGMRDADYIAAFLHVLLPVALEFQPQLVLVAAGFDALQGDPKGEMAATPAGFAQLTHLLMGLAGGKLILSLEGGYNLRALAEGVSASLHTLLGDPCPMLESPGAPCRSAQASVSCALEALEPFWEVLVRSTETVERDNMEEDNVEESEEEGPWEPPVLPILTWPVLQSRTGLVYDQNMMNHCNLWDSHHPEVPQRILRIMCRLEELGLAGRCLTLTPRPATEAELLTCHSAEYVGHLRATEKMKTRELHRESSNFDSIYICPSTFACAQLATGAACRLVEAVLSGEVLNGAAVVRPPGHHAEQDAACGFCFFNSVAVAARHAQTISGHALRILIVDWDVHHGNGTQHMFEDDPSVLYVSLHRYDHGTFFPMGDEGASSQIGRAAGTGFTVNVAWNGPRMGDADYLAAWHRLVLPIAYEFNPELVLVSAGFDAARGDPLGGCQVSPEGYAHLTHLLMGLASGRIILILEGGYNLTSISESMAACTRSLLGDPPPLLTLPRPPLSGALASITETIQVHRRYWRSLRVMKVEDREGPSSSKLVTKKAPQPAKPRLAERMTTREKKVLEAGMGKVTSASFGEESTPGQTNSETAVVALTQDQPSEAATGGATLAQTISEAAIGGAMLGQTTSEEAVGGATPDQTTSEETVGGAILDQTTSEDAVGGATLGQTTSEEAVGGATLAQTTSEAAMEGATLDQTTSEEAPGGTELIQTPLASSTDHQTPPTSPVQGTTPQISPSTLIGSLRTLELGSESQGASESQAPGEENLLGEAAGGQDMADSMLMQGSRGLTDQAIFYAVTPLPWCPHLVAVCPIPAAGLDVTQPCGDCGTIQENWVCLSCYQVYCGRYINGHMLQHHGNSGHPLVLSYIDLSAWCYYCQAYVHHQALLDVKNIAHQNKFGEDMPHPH
Assay: HDAC6 inhibition, fluorogenic peptide substrate (Reaction Biology Corporation)
Assay type: biochemical
Method: The compounds of the present invention were tested for inhibition of human HDAC6 at Reaction Biology Corporation by using 50 μM Fluorogenic peptide from p53 residues 379-382 (RHKKAc) as the substrate.

[1] = 50 μM fluorogenic peptide from p53 residues 379-382 (RHKKAc) as substrate, read-out: IC50, HDAC6 inhibition

Row | SMILES | IC50 [1] [nM] | IC50 [nM]
1 | CN1CCn2c(c(Sc3ccc(C(=O)NO)cc3)c3ccccc32)C1=O [Example 5, N-hydroxy-4-((2-methyl-1-oxo-1,2,3,4-tetrahydropyrazino[1,2-a]indol-10-yl)thio)benzamide] | 1.76 | –
2 | CN1CCc2c(C(=O)c3ccc(C(=O)NO)cc3)c3ccccc3n2C1 [Example 4, N-hydroxy-4-(2-methyl-1,2,3,4-tetrahydropyrimido[1,6-a]indole-5-carbonyl)benzamide] | – | 1490
3 | Cc1ccc2c(c1)c(Sc1ccc(C(=O)NO)cc1)c1n2CN(C)CC1 [Example 2, 4-((2,7-Dimethyl-1,2,3,4-tetrahydropyrimido[1,6-a]indol-5-yl)thio)-N-hydroxybenzamide] | 35.5 | –
4 | CN1CCc2c(Cc3ccc(C(=O)NO)cc3)c3ccccc3n2C1 [Example 3, N-hydroxy-4-((2-methyl-1,2,3,4-tetrahydropyrimido[1,6-a]indol-5-yl)methyl)benzamide] | 10.7 | –
5 | CN1CCc2c(Sc3ccc(C(=O)NO)cc3)c3ccccc3n2C1 [Example 1, N-Hydroxy-4-((2-methyl-1,2,3,4-tetrahydropyrimido[1,6-a]indol-5-yl)thio)benzamide] | 2.48 | –
